These results are taken from US20240148686A1, “PHARMACEUTICAL COMPOSITION OF FORSKOLIN-ISOFORSKOLIN AND PENTACYCLIC TRITERPENOID COMPOUND, AND APPLICATION THEREOF” (CHINA PHARMACEUTICAL UNIVERSITY, priority 2021, published 2024).

In assay [1] the test system is NAFLD model mice (obesity and fatty liver models induced by a high-fat diet). As to the kind of experiment: Therapeutic effects on obesity and fatty liver (NAFLD) models induced by a high-fat diet. The class given is in vivo, C57 mice. Particulars: for serum FFA content / serum TC content / hepatic TG content: fatty liver model mice, total 20 mg/kg intragastric once a day for 12 weeks, x±s; for serum FFA content / serum TC content: high-fat diet 12 weeks; for hepatic TG content: liver homogenate supernatant. Here is the method:
(§1) Notes: Statistical analysis is conducted by the GraphPad Prism 8.0 statistical software, and statistical analysis results are analyzed by t-Test. Compared with a model group, *P<0.05 indicates a statistically-significant difference between the groups: **P<0.01, […], and ****P<0.0001.
160 SPF-grade male C57 mice at 8 weeks to 9 weeks were adaptively raised for one week, and then 140 obese mice with a consistent body weight were selected and evenly divided into 14 groups with 10 mice per group, including a model group (M group), a forskolin group (F group), an isoforskolin group (IF group), an asiatic acid group (AA group), an asiaticoside group (AS group), an OA group (OA group), a betulinic acid group (BA group), a forskolin+asiatic acid combined administration group (F+AA group), a forskolin+asiaticoside combined administration group (F+AS group), forskolin+OA combined administration groups (low, medium, and high) (F+OA-1:4, 1:1, and 4:1 groups), a forskolin+betulinic acid combined administration group (F+BA group), and an isoforskolin+OA combined administration group (IF+OA group). The mice were fed by a high-fat diet (including 35% of fat, 26% of carbohydrates, and 26% of proteins) continuously for 12 weeks to establish obesity and fatty liver models, and during the modeling, a drug was intragastrically administered continuously for 12 weeks. The experimental animals were raised in ordinary mouse cages in an environment with a room temperature of 24±2° C., a humidity of 40% to 60%, and a 12 h light/12 h dark cycle.
Administration mode: A drug was prepared with a 0.5% CMC-Na solution as a solvent into a suspension, and the suspension was intragastrically administered once a day continuously for 12 weeks.
The mice were administered with a drug continuously for 12 weeks, and after the last administration, the mice were fasted without water deprivation for 12 h; a body weight of each mouse was measured, eyeballs were removed, blood was collected, and a liver was taken out and weighed; a part of the liver tissue was stored in 4% paraformaldehyde (PFA), and another part of the liver tissue was stored in liquid nitrogen; and inguinal fat was collected from a right thigh of each mouse, weighed, and stored in liquid nitrogen.
A blood sample was allowed to stand in a 4° C. refrigerator for 4 h and then centrifuged at 3,500 rpm for 10 min to 15 min; and a resulting supernatant was collected and tested by a blood bio-chemical analyzer to determine the FFA and TC levels in serum. The liver tissue stored in 4% PFA was frozen and sectioned, and then stained with oil red O to obtain slide specimens. The liver tissue stored in liquid nitrogen was homogenized and then centrifuged, and a resulting supernatant was collected and then tested by a kit to determine a TG content.

For assay [2], the system named is chronic liver fibrosis model mice induced by CCl4. As to the kind of experiment: Therapeutic effects on chronic liver fibrosis model induced by CCl4. The class given is in vivo, C57BL/6 mice. As to conditions: total 20 mg/kg intragastric once a day for 8 weeks, x±s. Here is the method:
as §1
140 C57 mice were selected and evenly divided into 14 groups with 10 mice per group, including a model group (M group), a forskolin group (F group), an isoforskolin group (IF group), an asiatic acid group (AA group), an asiaticoside group (AS group), an OA group (OA group), a betulinic acid group (BA group), a forskolin+asiatic acid combined administration group (F+AA group), a forskolin+asiaticoside combined administration group (F+AS group), forskolin+OA combined administration groups (low, medium, and high) (F+OA-1:4, 1:1, and 4:1 groups), a forskolin+betulinic acid combined administration group (F+BA group), and an isoforskolin+OA combined administration group (IF+OA group). Every Thursday and Sunday, all mice each were intraperitoneally injected with a 5% carbon tetrachloride (CCl4)-containing olive oil solution continuously for 8 weeks at an injection volume of 20 mL/kg to obtain a liver fibrosis model caused by chronic liver damage.
Administration mode: A drug was prepared with a 0.5% CMC-Na solution as a solvent into a suspension, and the suspension was intragastrically administered once a day continuously for 8 weeks.
The mice were administered with a drug continuously for 8 weeks, and after the last administration, the mice were fasted without water deprivation for 12 h; a body weight of each mouse was measured, eyeballs were removed, blood was collected, and a liver was taken out and weighed; and a part of the liver tissue was stored in 4% PFA, and another part of the liver tissue was stored in liquid nitrogen.
A blood sample was allowed to stand in a 4° C. refrigerator for 4 h and then centrifuged at 3,500 rpm for 10 min to 15 min; and a resulting supernatant was collected and tested by a kit to determine AST and ALT levels. The liver tissue stored in liquid nitrogen was homogenized and then centrifuged, and a resulting supernatant was collected and then tested by an enzyme-linked immunosorbent assay (ELISA) kit to determine a PCIII content. The liver tissue stored in 4% PFA was dehydrated, fixed, sectioned, and stained to obtain H&E-stained and Sirius red-stained slide specimens.

Marks after values point to notes of the source that are not given here.

Turning to `C[C@H]1[C@H](C)CC[C@]2(C(=O)O)CC[C@]3(C)C(=CC[C@@H]4[C@@]5(C)C[C@@H](O)[C@H](O)[C@@](C)(CO)[C@@H]5CC[C@]43C)[C@H]12` [AA, Asiatic acid], in assay [1], the “serum FFA content” value was found to be 1.286 ± 0.143 mmol/L, the “serum TC content” value is reported as 7.26 ± 0.74 mmol/L and the “hepatic TG content” value stood at 1.17 ± 0.12 mmol/L. Also, in assay [2], the “serum ALT content” value is reported as 815 ± 53* U/L and the “serum AST content” value is given as 399 ± 22* U/L.
Take Forskolin: the “body weight increase (FIG. 1), in words” value in assay [1] (NAFLD model mice, total 20 mg/kg intragastric daily, 12 weeks) was “can inhibit the increase of a body weight of mice similarly”. In assay [1], the “serum FFA content” value stood at 1.324 ± 0.124 mmol/L, the “serum TC content” value came to 7.44 ± 0.86 mmol/L and the “hepatic TG content” value is 1.01 ± 0.07* mmol/L. Besides, in assay [2], the “serum ALT content” value worked out at 922 ± 32 U/L and the “serum AST content” value amounted to 447 ± 31 U/L.
Regarding Asiaticoside, in assay [1], the “serum FFA content” value is reported as 1.238 ± 0.186* mmol/L, the “serum TC content” value was found to be 7.09 ± 0.34 mmol/L and the “hepatic TG content” value worked out at 1.18 ± 0.08 mmol/L. Further, in assay [2], the “serum ALT content” value is 882 ± 25 U/L and the “serum AST content” value was 406 ± 63* U/L.
As to `CC1(C)CC[C@]2(C(=O)O)CC[C@]3(C)C(=CC[C@@H]4[C@@]5(C)CC[C@H](O)C(C)(C)[C@@H]5CC[C@]43C)[C@@H]2C1` [OA, Oleanolic acid], in assay [1], the “serum FFA content” value is on record as 1.182 ± 0.113* mmol/L, the “serum TC content” value is on record as 6.84 ± 0.54* mmol/L and the “hepatic TG content” value is given as 1.03 ± 0.09* mmol/L. In assay [2], the “serum ALT content” value was 888 ± 53 U/L and the “serum AST content” value came out at 436 ± 51 U/L.
In the same order, the values of `C=C(C)[C@@H]1CC[C@]2(C(=O)O)CC[C@]3(C)[C@H](CC[C@@H]4[C@@]5(C)CC[C@H](O)C(C)(C)[C@@H]5CC[C@]43C)[C@@H]12` [BA, Betulinic acid] are 1.245 ± 0.201 mmol/L, 7.02 ± 0.63 mmol/L, 1.10 ± 0.08 mmol/L, 849 ± 34 U/L and 422 ± 45* U/L.
